Tests used:
Assay type in all cases: cell-based
[1] = molecular target: T1, FKBP12-EGFP (Homo sapiens, UniProt P62942); experiment: E3 ligase focused CRISPR-Cas9 transcriptional activation screen for FKBP12-EGFP degradation; conditions: 2 μM 22-SLF, 24 hours, HEK293T CRISPR-Cas9 transcriptional activation cells
T1 construct: expressed in transfected cells
Description: FIGS. 1A-1E show an E3 ligase focused CRISPR-Cas9 transcriptional activation screen identifies FBXO22 that supports 22-SLF-induced reduction in FKBP12-EGFP expression levels. FIG. 1A is a schematic representation of the steps in the CRISPR-Cas9 transcriptional activation screen. […] FIG. 1C is a volcano plot showing the E3 ligase focused CRISPR-Cas9 transcriptional activation screen for FKBP12-EGFP degradation after treatment of 2 μM 22-SLF in HEK293T CRISPR-Cas9 transcriptional activation cells for 24 hours. […] The statistical significance was evaluated through unpaired two-tailed Student's t-tests, comparing cells transduced with FBXO22 sgRNA to control sgRNA. Statistical significance denoted ****P<0.0001. […] The statistical significance was evaluated through unpaired two-tailed Student's t-tests, comparing cells treated with 22-SLF to DMSO. Statistical significance denoted as ***P<0.001 and ns: not significant.
With the CRISPR-Cas9 transcriptional activation cells, a CRISPR-Cas9 transcriptional activation pool screen was developed to identify E3 ligases that support FKBP12 degradation by FKBP12-directed heterobifunctional compounds. […] Subsequently, cells from the bottom 15% of the GFP population were isolated using fluorescence-activated cell sorting (FIG. 1a and FIG. 7). […]

[2] = molecular target: T2, FKBP12 interactome (SKP1-CUL1-RBX1 E3 complex) (Homo sapiens, UniProt P62942+Q8NEZ5, C227A/C228A); experiment: FKBP12-directed enrichment proteomic analysis; conditions: 22-SLF (2 μM) and MG132 (5 μM)
T2 construct: expressed in transfected cells; host or cells: HEK293T (FLAG-FKBP12 and HA-FBXO22 expressed; SKP1, CUL1 and RBX1 are the cells' own)
T2 sequence (P62942 2-108): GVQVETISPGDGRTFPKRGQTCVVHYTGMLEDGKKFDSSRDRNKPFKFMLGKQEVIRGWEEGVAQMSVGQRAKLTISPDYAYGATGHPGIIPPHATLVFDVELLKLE
T2 sequence (Q8NEZ5 whole entry C227A/C228A): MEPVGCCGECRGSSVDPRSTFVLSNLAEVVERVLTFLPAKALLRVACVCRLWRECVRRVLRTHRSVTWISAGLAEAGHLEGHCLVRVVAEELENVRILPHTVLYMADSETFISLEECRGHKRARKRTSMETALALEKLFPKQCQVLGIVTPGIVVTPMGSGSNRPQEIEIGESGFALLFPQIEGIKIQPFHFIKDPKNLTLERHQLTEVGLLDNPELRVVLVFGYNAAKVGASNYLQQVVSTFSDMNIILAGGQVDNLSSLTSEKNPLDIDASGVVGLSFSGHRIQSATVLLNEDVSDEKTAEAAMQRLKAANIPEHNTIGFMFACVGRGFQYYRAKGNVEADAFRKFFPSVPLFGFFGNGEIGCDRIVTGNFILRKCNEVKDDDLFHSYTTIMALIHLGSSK
T2 sequence (P63208 whole entry partner): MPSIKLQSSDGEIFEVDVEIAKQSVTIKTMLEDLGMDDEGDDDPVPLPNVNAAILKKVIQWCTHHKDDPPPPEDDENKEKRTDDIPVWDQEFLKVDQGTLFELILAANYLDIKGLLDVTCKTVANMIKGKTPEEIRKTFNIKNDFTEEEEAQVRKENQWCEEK
Excerpt: (§1) FIGS. 4A-4C show 22-SLF induces the formation of a ternary complex involving 22-SLF, FKBP12 and FBXO22. […] The bar graph represents quantification of the immunoprecipitated HA-FBXO22 protein content compared to the HA-FBXO22 protein in whole cell lysates (WCL). Data are presented as the mean values (n=2 biological independent samples). […] Data are presented as the mean values (n=2 biological independent samples).
(§2) To comprehensively assess the impact of 22-SLF on the FKBP12 interactome landscape, an enrichment proteomic approach was employed to identify proteins co-immunoprecipitating with FLAG-FKBP12 from HEK293T cells treated with 22-SLF. […] Furthermore, another enrichment proteomic study was conducted comparing FKBP12 interactome landscape in HEK293T cells expressing FBXO22 wildtype and C227AC228A double mutant. […] Collectively, these findings indicate that 22-SLF effectively drives the formation of a ternary complex involving 22-SLF, FBXO22 and FKBP12 by engaging C227/228 in FBXO22, thereby facilitating the subsequent degradation of FKBP12.

[3] = molecular target: T3, FKBP12 interactome (SKP1-CUL1-RBX1 E3 complex) (Homo sapiens, UniProt P62942+Q8NEZ5); experiment: FKBP12-directed enrichment proteomic analysis; conditions: 22-SLF (2 μM) and MG132 (5 μM)
T3 construct: expressed in transfected cells; host or cells: HEK293T (FLAG-FKBP12 and HA-FBXO22 expressed; SKP1, CUL1 and RBX1 are the cells' own)
T3 sequence (P62942 2-108): as the sequence (P62942 2-108) above
T3 sequence (Q8NEZ5 whole entry): as the sequence (Q8NEZ5 whole entry C227A/C228A) above, with A227C, A228C counted along it
T3 sequence (P63208 whole entry partner): as the sequence (P63208 whole entry partner) above
Excerpt: as §1, §2

[4] = molecular target: FKBP12 (Homo sapiens, UniProt P62942); experiment: Degradation of endogenous FKBP12 in cancer cell lines, wild type vs FBXO22 knockout
Chain of FKBP12 (P62942 whole entry): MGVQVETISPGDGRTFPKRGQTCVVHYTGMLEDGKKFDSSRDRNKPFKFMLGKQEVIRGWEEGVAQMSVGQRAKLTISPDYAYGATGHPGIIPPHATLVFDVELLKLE
Description: The bar graph represents quantification of the FLAG-FKBP12/HSP90 protein content. Data are presented as the mean values±s.e.m. […] HEK293T cells expressing HA-FBXO22 were treated with 0.025-15 μM 22-SLF for 8 h. The graph represents quantification of the FLAG-FKBP12/HSP90 protein content. Data are presented as the mean values (n=2 biological independent samples). […] The bar graph represents quantification of the FLAG-FKBP12/HSP90 protein content. KO, knockout; WT, wild type. Data are presented as the mean values (n=2 biological independent samples). […] The bar graph represents quantification of the FLAG-FKBP12/HSP90 protein content. Data are presented as the mean values±s.e.m. […] The result is representative of two independent experiments with similar results. WCL, whole-cell lysate; IP, immunoprecipitate.
Data is obtained from Gene Expression Profiling Interactive Analysis (GEPIA). […] KDM4A and KDM4B are two reported substrates of FBXO22.
As an F-box protein, FBXO22 is a pivotal player in the context of tumor progression. FBXO22 has many oncogenic functions, including propelling the ubiquitination and subsequent degradation of a diverse spectrum of substrates, such as histone lysine demethylase 4 subfamily KDM4A/B, methylated p53, p21, PTEN, KLF4, and LKB1. […]

T1 sequence (P62942 whole entry): as above

## CCC(C)(C)C(=O)C(=O)N1CCCC[C@H]1C(=O)O[C@H](CCc1ccc(OC)c(OC)c1)c1cccc(OCC(=O)NCCCOCCOCCOCCCN(C(=O)CCl)C(C(=O)NCc2ccccc2)c2nc3ccccc3s2)c1 (stereo partly drawn) [22-SLF]
[1]
  Enrichment of sgRNAs in sorted low-GFP cells: substantial enrichment of two distinct sgRNAs targeting the same E3 ligase, FBXO22
[2]
  FBXO22 complex enrichment, FBXO22 C227AC228A-expressing cells: enrichment was absent
[3]
  FBXO22 complex enrichment, FBXO22 wildtype-expressing cells: enrichment of the FBXO22 complex
[3]; HEK293T cells
  Proteins co-immunoprecipitating with FLAG-FKBP12: FBXO22 itself, SKP1, CUL1, and NEDD8, as proteins recruited by 22-SLF
[4]; A549, MDA-MB-231 and PC3, 2 μM in A549
  Degradation of endogenous FKBP12, wild-type cells: promoted degradation of endogenous FKBP12
[4]; A549, MDA-MB-231 and PC3 FBXO22 knockout
  Degradation of endogenous FKBP12, FBXO22 knockout cells: abolished upon FBXO22 knockout
